# Results as given in patent US12357623B2, “Method for treating a disease or condition using a pyrazole compound or formulation thereof” (Rigel Pharmaceuticals, Inc., priority 2021, dated 2025).
# Where a name gives a salt, the structure may show the parent alone.
# Key:
# [1] = Hygroscopicity evaluation (DVS) of salts of compound I-18; format: physicochemical; details: 25° C.
# Method: To investigate the solid form stability as a function of humidity, DVS isotherm plot of the K salt, Arginine salt, Choline salt and Tris salt were collected at 25° C. between 0 and 95% RH.
# [2] = Physical and chemical stability of salts of compound I-18; format: physicochemical; details: for Area (%) of peak at RRT 1.00: main peak; for Area (%) of peak at RRT 1.17: peak corresponds to I-1 formed by hydrolysis; for Initial purity: before storage
# Method: The physical and chemical stability of the K salt, Arginine salt, Choline salt and Tris salt were evaluated under conditions of 25° C./60% RH and 40° C./75% RH for 1 week. Each sample was added into 3 mL glass vials, sealed by parafilm with several holes, and kept under tested condition. After one week, samples was taken for XRPD and HPLC purity test.
# [3] = 25° C./60% RH, 1 week, listed as arginine salt
# [4] = 40° C./75% RH, 1 week, listed as arginine salt
# [5] = Initial, listed as arginine salt
# [6] = 25° C./60% RH, 1 week, listed as choline salt
# [7] = 25° C./60% RH/1 week, listed as Choline salt
# [8] = 40° C./75% RH, 1 week, listed as choline salt
# [9] = Initial, listed as choline salt
# [10] = 25° C./60% RH, 1 week, listed as tris salt
# [11] = 40° C./75% RH, 1 week, listed as tris salt
# [12] = 25° C./60% RH, 1 week, listed as potassium salt
# [13] = 40° C./75% RH, 1 week, listed as potassium salt
# [14] = Initial, listed as potassium salt
compound,measurement,setting,value
"CCO[C@H]1CC[C@H](n2cc(NC(=O)c3csc(-c4cnn(C(C)OP(=O)(O)O)c4)n3)c(-c3nc(F)ccc3F)n2)CC1 (some centres unmarked) [Compound I-110, 1-(4-(4-((3-(3,6-difluoropyridin-2-yl)-1-((1r, 4r)-4-ethoxycyclohexyl)-1H-pyrazol-4-yl)carbamoyl)thiazol-2-yl)-1H-pyrazol-1-yl)ethyl dihydrogen phosphate arginine salt]",water uptake (DVS),[1]; at 80% RH,1.43%
same,hygroscopicity (DVS),[1]; from water uptake at 80% RH,slight hygroscopic
same,Area (%) of peak at RRT 1.13,"[2]; 25° C./60% RH, 1 week",0.06%
same,Area (%) of peak at RRT 0.77,[2]; [3],0.03%
same,Area (%) of peak at RRT 1.35,[2]; [3],0.06%
same,Area (%) of peak at RRT 1.45,[2]; [3],0.50%
same,Area (%) of peak at RRT 1.71,[2]; [3],0.74%
same,Area (%) of peak at RRT 1.73,[2]; [3],0.61%
same,HPLC purity change,[2]; [3],slight purity decrease
same,Area (%) of peak at RRT 1.00,[2]; [3],95.31%
same,Area (%) of peak at RRT 1.17,[2]; [3],2.68%
same,Form change (XRPD),"[2]; 25° C./60% RH/1 week, listed as Arginine salt",no form change and No
same,Area (%) of peak at RRT 1.13,"[2]; 40° C./75% RH, 1 week",0.06%
same,Area (%) of peak at RRT 0.77,[2]; [4],0.04%
same,Area (%) of peak at RRT 1.35,[2]; [4],0.11%
same,Area (%) of peak at RRT 1.45,[2]; [4],0.47%
same,Area (%) of peak at RRT 1.71,[2]; [4],0.73%
same,Area (%) of peak at RRT 1.73,[2]; [4],0.60%
same,HPLC purity change,[2]; [4],slight purity decrease
same,Area (%) of peak at RRT 1.00,[2]; [4],95.50%
same,Area (%) of peak at RRT 1.17,[2]; [4],2.48%
same,Form change (XRPD),"[2]; 40° C./75% RH/1 week, listed as Arginine salt",no form change and No
same,Area (%) of peak at RRT 1.35,[2]; Initial,<0.03%
same,Area (%) of peak at RRT 0.77,[2]; [5],<0.03%
same,Area (%) of peak at RRT 1.13,[2]; [5],<0.03%
same,Area (%) of peak at RRT 1.45,[2]; [5],0.44%
same,Area (%) of peak at RRT 1.71,[2]; [5],0.73%
same,Area (%) of peak at RRT 1.73,[2]; [5],<0.53%
same,Area (%) of peak at RRT 1.00,[2]; [5],95.91%
same,Area (%) of peak at RRT 1.17,[2]; [5],2.39%
same,Initial purity,[2]; listed as Arginine salt,95.91 area %
"CCO[C@H]1CC[C@H](n2cc(NC(=O)c3csc(-c4cnn(C(C)OP(=O)(O)O)c4)n3)c(-c3nc(F)ccc3F)n2)CC1 (some centres unmarked) [Compound I-111, 1-(4-(4-((3-(3,6-difluoropyridin-2-yl)-1-((1r, 4r)-4-ethoxycyclohexyl)-1H-pyrazol-4-yl)carbamoyl)thiazol-2-yl)-1H-pyrazol-1-yl)ethyl dihydrogen phosphate choline salt]",water uptake (DVS),"[1]; at 70% RH, listed as Choline salt",3.66%
same,water uptake (DVS),"[1]; at 95% RH, listed as Choline salt",32.4%
same,Area (%) of peak at RRT 0.77,[2]; [6],0.04%
same,Area (%) of peak at RRT 1.35,[2]; [6],0.10%
same,Area (%) of peak at RRT 1.45,[2]; [6],0.07%
same,Area (%) of peak at RRT 1.71,[2]; [6],0.05%
same,Area (%) of peak at RRT 1.73,[2]; [6],0.46%
same,HPLC purity change,[2]; [6],no HPLC purity decrease
same,Area (%) of peak at RRT 1.00,[2]; [6],98.66%
same,Area (%) of peak at RRT 1.17,[2]; [6],0.58%
same,Form change (XRPD),[2]; [7],no form change and No
same,Purity/Initial purity,[2]; [7],100.0%
same,Area (%) of peak at RRT 0.77,[2]; [8],0.04%
same,Area (%) of peak at RRT 1.35,[2]; [8],0.14%
same,Area (%) of peak at RRT 1.45,[2]; [8],0.11%
same,Area (%) of peak at RRT 1.71,[2]; [8],0.08%
same,Area (%) of peak at RRT 1.73,[2]; [8],0.46%
same,HPLC purity change,[2]; [8],a purity decrease was observed
same,Area (%) of peak at RRT 1.00,[2]; [8],97.81%
same,Area (%) of peak at RRT 1.17,[2]; [8],1.31%
same,Form change (XRPD),"[2]; 40° C./75% RH/1 week, listed as Choline salt",no form change and No
same,Area (%) of peak at RRT 1.35,[2]; Initial,<0.03%
same,Area (%) of peak at RRT 0.77,[2]; [9],0.03%
same,Area (%) of peak at RRT 1.13,[2]; [9],0.06%
same,Area (%) of peak at RRT 1.45,[2]; [9],0.06%
same,Area (%) of peak at RRT 1.71,[2]; [9],0.06%
same,Area (%) of peak at RRT 1.73,[2]; [9],0.33%
same,Area (%) of peak at RRT 1.00,[2]; [9],98.70%
same,Area (%) of peak at RRT 1.17,[2]; [9],0.75%
same,Initial purity,[2]; listed as Choline salt,98.70 area %
"CCO[C@H]1CC[C@H](n2cc(NC(=O)c3csc(-c4cnn(C(C)OP(=O)(O)O)c4)n3)c(-c3nc(F)ccc3F)n2)CC1 (some centres unmarked) [Compound I-49, 1-(4-(4-((3-(3,6-difluoropyridin-2-yl)-1-((1r, 4r)-4-ethoxycyclohexyl)-1H-pyrazol-4-yl)carbamoyl)thiazol-2-yl)-1H-pyrazol-1-yl)ethyl dihydrogen phosphate tris salt]",water uptake (DVS),"[1]; at 70% RH, listed as Tris salt",6.06%
same,water uptake (DVS),"[1]; at 95% RH, listed as Tris salt",39.5%
same,Area (%) of peak at RRT 1.13,"[2]; 25° C./60% RH, 1 week",0.06%
same,Area (%) of peak at RRT 0.77,[2]; [10],<0.03%
same,Area (%) of peak at RRT 1.45,[2]; [10],0.35%
same,Area (%) of peak at RRT 1.71,[2]; [10],0.80%
same,Area (%) of peak at RRT 1.73,[2]; [10],0.55%
same,HPLC purity change,[2]; [10],no HPLC purity decrease
same,Area (%) of peak at RRT 1.00,[2]; [10],96.61%
same,Area (%) of peak at RRT 1.17,[2]; [10],1.63%
same,Form change (XRPD),"[2]; 25° C./60% RH/1 week, listed as Tris salt",no form change and No
same,Area (%) of peak at RRT 0.77,[2]; [11],0.03%
same,Area (%) of peak at RRT 1.45,[2]; [11],0.47%
same,Area (%) of peak at RRT 1.71,[2]; [11],0.88%
same,Area (%) of peak at RRT 1.73,[2]; [11],0.84%
same,HPLC purity change,[2]; [11],a purity decrease was observed
same,Area (%) of peak at RRT 1.00,[2]; [11],95.03%
same,Area (%) of peak at RRT 1.17,[2]; [11],2.69%
same,Form change (XRPD),"[2]; 40° C./75% RH/1 week, listed as Tris salt",no form change and No
same,Area (%) of peak at RRT 0.77,"[2]; Initial, listed as tris salt",<0.03%
same,Area (%) of peak at RRT 1.13,"[2]; Initial, listed as tris salt",0.07%
same,Area (%) of peak at RRT 1.45,"[2]; Initial, listed as tris salt",0.37%
same,Area (%) of peak at RRT 1.71,"[2]; Initial, listed as tris salt",0.86%
same,Area (%) of peak at RRT 1.73,"[2]; Initial, listed as tris salt",0.76%
same,Area (%) of peak at RRT 1.00,"[2]; Initial, listed as tris salt",96.06%
same,Area (%) of peak at RRT 1.17,"[2]; Initial, listed as tris salt",1.87%
same,Initial purity,[2]; listed as Tris salt,96.06 area %
"CCO[C@H]1CC[C@H](n2cc(NC(=O)c3csc(-c4cnn(C(C)OP(=O)(O)O)c4)n3)c(-c3nc(F)ccc3F)n2)CC1 (some centres unmarked) [Compound I-108, potassium 1-(4-(4-((3-(3,6-difluoropyridin-2-yl)-1-((1r, 4r)-4-ethoxycyclohexyl)-1H-pyrazol-4-yl)carbamoyl)thiazol-2-yl)-1H-pyrazol-1-yl)ethyl hydrogen phosphate]",water uptake (DVS),"[1]; at 70% RH, listed as K salt",0.42%
same,water uptake (DVS),"[1]; at 95% RH, listed as K salt",16.5%
same,Area (%) of peak at RRT 1.14,"[2]; 25° C./60% RH, 1 week",<0.04%
same,Area (%) of peak at RRT 1.40,"[2]; 25° C./60% RH, 1 week",0.25%
same,Area (%) of peak at RRT 1.44,"[2]; 25° C./60% RH, 1 week",0.30%
same,Area (%) of peak at RRT 1.70,"[2]; 25° C./60% RH, 1 week",0.27%
same,Area (%) of peak at RRT 1.72,"[2]; 25° C./60% RH, 1 week",0.78%
same,Area (%) of peak at RRT 1.81,"[2]; 25° C./60% RH, 1 week",<0.04%
same,HPLC purity change,"[2]; 25° C./60% RH, 1 week, listed as K salt",slight purity decrease
same,Area (%) of peak at RRT 1.00,[2]; [12],96.26%
same,Area (%) of peak at RRT 1.17,[2]; [12],2.14%
same,Form change (XRPD),"[2]; 25° C./60% RH/1 week, listed as K salt",no form change and No
same,Area (%) of peak at RRT 1.14,"[2]; 40° C./75% RH, 1 week",0.05%
same,Area (%) of peak at RRT 1.40,"[2]; 40° C./75% RH, 1 week",0.39%
same,Area (%) of peak at RRT 1.44,"[2]; 40° C./75% RH, 1 week",0.24%
same,Area (%) of peak at RRT 1.70,"[2]; 40° C./75% RH, 1 week",0.24%
same,Area (%) of peak at RRT 1.72,"[2]; 40° C./75% RH, 1 week",0.83%
same,Area (%) of peak at RRT 1.81,"[2]; 40° C./75% RH, 1 week",0.04%
same,HPLC purity change,"[2]; 40° C./75% RH, 1 week, listed as K salt",slight purity decrease
same,Area (%) of peak at RRT 1.00,[2]; [13],96.40%
same,Area (%) of peak at RRT 1.17,[2]; [13],1.80%
same,Form change (XRPD),"[2]; 40° C./75% RH/1 week, listed as K salt",a form change was observed and Yes
same,Area (%) of peak at RRT 1.14,[2]; Initial,<0.04%
same,Area (%) of peak at RRT 1.40,[2]; Initial,0.23%
same,Area (%) of peak at RRT 1.44,[2]; Initial,0.21%
same,Area (%) of peak at RRT 1.70,[2]; Initial,0.18%
same,Area (%) of peak at RRT 1.72,[2]; Initial,0.77%
same,Area (%) of peak at RRT 1.81,[2]; Initial,<0.04%
same,Area (%) of peak at RRT 1.00,[2]; [14],97.27%
same,Area (%) of peak at RRT 1.17,[2]; [14],1.33%
same,Initial purity,[2]; listed as K salt,97.27 area %
